From BigSolDB 2.1

CCCCS(=O)(=O)N[C@@H](Cc1ccc(OCCCCC2CCNCC2)cc1)C(=O)O
solubility (mole fraction)
Settings	278.15 K	283.15 K	288.15 K	293.15 K	298.15 K	303.15 K	308.15 K	313.15 K	318.15 K	323.15 K
in ethanol	0.000129	0.000156	0.000183	0.000216	0.00025	0.000288	0.000329	0.000373	0.000427	0.00049
in ethylene glycol	4.7e-05	5.7e-05	6.77e-05	8.02e-05	9.46e-05	0.000109	0.000125	0.000142	0.00016	0.000181
in isopropanol	7.48e-05	9.32e-05	0.000108	0.00013	0.000153	0.000176	0.0002	0.00023	0.000265	0.000301
in methanol	0.000306	0.000375	0.000443	0.00052	0.000617	0.00071	0.000836	0.000957	0.0011	0.00125
in water	9.32e-07	1.1e-06	1.32e-06	1.55e-06	1.83e-06	2.08e-06	2.42e-06	2.75e-06	3.14e-06	3.59e-06
